In this experiment the test system is P388 leukemia ip, CD2F1 mice, survival T/C. Kind of experiment: NCI In Vivo Anticancer Drug Screen. Data for tumor model P388 Leukemia (intraperitoneal) in CD2F1 (CDF1) mice. The settings on record: endpoint: median survival time, higher = longer survival. Summed up:
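Mice carrying the transplanted tumor received test compound or vehicle. Survival was recorded in each group, and the value is the treated-group measurement divided by that of the vehicle-treated control group.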

Where [1] appears, read: dose: 100.0 mg/kg/injection, schedule: Q01DX001 (ip), vehicle: saline with Tween-80.
The mark [2] stands for this setting: dose: 50.0 mg/kg/injection, schedule: Q01DX005 (ip), vehicle: saline with Tween-80.
Setting [3] is: dose: 100.0 mg/kg/injection, schedule: Q01DX005 (ip), vehicle: saline with Tween-80.
[4] abbreviates: dose: 200.0 mg/kg/injection, schedule: Q01DX005 (ip), vehicle: saline with Tween-80.
Setting [5] is: dose: 50.0 mg/kg/injection, schedule: Q01DX009 (ip), vehicle: saline.
[6] abbreviates: dose: 100.0 mg/kg/injection, schedule: Q01DX009 (ip), vehicle: saline.
[7] abbreviates: dose: 200.0 mg/kg/injection, schedule: Q01DX009 (ip), vehicle: saline.
The mark [8] stands for this setting: dose: 100.0 mg/kg/injection, schedule: Q01DX009 (ip), vehicle: Klucel (hydroxypropylcellulose) (HPC).
[9] abbreviates: dose: 200.0 mg/kg/injection, schedule: Q01DX009 (ip), vehicle: Klucel (hydroxypropylcellulose) (HPC).

The structures appear in SMILES notation. Where “and” joins values, the source holds several entries; their conditions need not be identical. Equal values may be shown once. Inconclusive results and toxic doses are left out.

In the case of `CCOC(=O)C/C(=N\Nc1ccc([N+](=O)[O-])cc1[N+](=O)[O-])c1ccccc1`, the T/C by setting is: under setting [1], 100 % of control; (dose: 200.0 mg/kg/injection, schedule: Q01DX001 (ip), vehicle: saline with Tween-80) 100 % of control; (dose: 400.0 mg/kg/injection, schedule: Q01DX001 (ip), vehicle: saline with Tween-80) 100 % of control.

Regarding `CCCCOC(=O)CCC(CC(=O)OCCCC)C(=O)OCCCC` (stereo unspecified), the T/C by setting is: (dose: 50.0 mg/kg/injection, schedule: Q01DX005 (ip), vehicle: saline) 103 % of control; (dose: 100.0 mg/kg/injection, schedule: Q01DX005 (ip), vehicle: saline) 103 % of control; (dose: 200.0 mg/kg/injection, schedule: Q01DX005 (ip), vehicle: saline) 105 % of control.

As to `COc1cc2c(c(OC)c1OC)-c1c(cc3c(c1OC)OCO3)CC(C)C(C)(O)C2OC(=O)c1ccccc1` (stereo unspecified), the T/C by setting is: (dose: 11.25 mg/kg/injection, schedule: Q01DX009 (ip), vehicle: saline + alcohol) 104 % of control; (dose: 22.5 mg/kg/injection, schedule: Q01DX009 (ip), vehicle: saline + alcohol) 104 % of control; (dose: 45.0 mg/kg/injection, schedule: Q01DX009 (ip), vehicle: saline + alcohol) 95 % of control; (dose: 90.0 mg/kg/injection, schedule: Q01DX009 (ip), vehicle: saline + alcohol) 97 % of control.

In the case of `COC(=O)/C=C(/Nc1c(Cl)sc2ccccc2c1=O)C(=O)OC`, the T/C is 97 % of control under setting [2], 97 % of control under setting [3] and 95 % of control under setting [4].

Consider `Cc1c2c(C(N)=O)nccc2c(C)c2c1c1ccccc1n2Cc1ccccc1`, for which the T/C was 89 % of control (dose: 1.56 mg/kg/injection, schedule: Q04DX003 (ip), vehicle: distilled water + Tween-80); 89 % of control (dose: 3.13 mg/kg/injection, schedule: Q04DX003 (ip), vehicle: distilled water + Tween-80); 86 % of control (dose: 12.5 mg/kg/injection, schedule: Q04DX003 (ip), vehicle: distilled water + Tween-80); 87 % of control (dose: 25.0 mg/kg/injection, schedule: Q04DX003 (ip), vehicle: distilled water + Tween-80); 100 % of control (dose: 50.0 mg/kg/injection, schedule: Q04DX003 (ip), vehicle: distilled water + Tween-80); 95 % of control (dose: 100.0 mg/kg/injection, schedule: Q04DX003 (ip), vehicle: distilled water + Tween-80). The T/C (dose: 200.0 mg/kg/injection, schedule: Q04DX003 (ip), vehicle: distilled water + Tween-80) is 101 % of control.

As to `CC1=NN(C(=O)c2ccccn2)C(=O)C1N=Nc1ccc(S(=O)(=O)Nc2ncccn2)cc1` (stereo unspecified), the T/C was 102 % of control (dose: 60.0 mg/kg/injection, schedule: Q01DX005 (ip), vehicle: saline with Tween-80); 105 % of control (dose: 120.0 mg/kg/injection, schedule: Q01DX005 (ip), vehicle: saline with Tween-80); 94 % of control (dose: 240.0 mg/kg/injection, schedule: Q01DX005 (ip), vehicle: saline with Tween-80).

Regarding `NNC(=O)CNc1ccccc1Br`, the T/C runs as follows: (dose: 60.0 mg/kg/injection, schedule: Q01DX005 (ip), vehicle: Klucel (hydroxypropylcellulose) (HPC)) 97 % of control; (dose: 120.0 mg/kg/injection, schedule: Q01DX005 (ip), vehicle: Klucel (hydroxypropylcellulose) (HPC)) 98 % of control.

As to `CCN(CC)c1c(C)nnc2c3cccnc3nn12`, the T/C is 100 % of control (dose: 25.0 mg/kg/injection, schedule: Q01DX001 (ip), vehicle: saline with Tween-80); 103 % of control (dose: 50.0 mg/kg/injection, schedule: Q01DX001 (ip), vehicle: saline with Tween-80); 106 % of control and 97 % of control under setting [1].

On to `CSCCC(NC(=O)OC(C)(C)C)C(=O)ON1C(=O)CCC1=O` (stereo unspecified), for which the T/C by setting is: (dose: 12.5 mg/kg/injection, schedule: Q01DX005 (ip), vehicle: saline with Tween-80) 101 % of control and 107 % of control; (dose: 25.0 mg/kg/injection, schedule: Q01DX005 (ip), vehicle: saline with Tween-80) 103 % of control and 107 % of control; under setting [2], 117 % of control and 98 % of control; under setting [3], 106 % of control and 113 % of control and 116 % of control; under setting [4], 107 % of control and 97 % of control.

As to `O=C(Oc1ccc[nH]c1=O)c1cc([N+](=O)[O-])cc([N+](=O)[O-])c1`, the T/C runs as follows: (dose: 12.5 mg/kg/injection, schedule: Q01DX009 (ip), vehicle: saline) 99 % of control and 100 % of control; (dose: 25.0 mg/kg/injection, schedule: Q01DX009 (ip), vehicle: saline) 98 % of control and 107 % of control; under setting [5], 99 % of control and 103 % of control; under setting [6], 100 % of control; under setting [7], 98 % of control and 101 % of control; (dose: 400.0 mg/kg/injection, schedule: Q01DX009 (ip), vehicle: saline) 100 % of control and 109 % of control.

Consider `Cc1ccc(C2(c3ccc(C)cc3)CCCCCC2=O)cc1`, for which the T/C is, setting by setting: (dose: 25.0 mg/kg/injection, schedule: Q01DX005 (ip), vehicle: Klucel (hydroxypropylcellulose) (HPC)) 87 % of control; (dose: 50.0 mg/kg/injection, schedule: Q01DX005 (ip), vehicle: Klucel (hydroxypropylcellulose) (HPC)) 90 % of control; (dose: 100.0 mg/kg/injection, schedule: Q01DX005 (ip), vehicle: Klucel (hydroxypropylcellulose) (HPC)) 97 % of control.

Regarding `CCCCOC(=O)C1C(C(=O)OCCCC)C2(Cl)C(Cl)=C(Cl)C1(Cl)C2(Cl)Cl` (stereo unspecified), the T/C by setting is: under setting [8], 97 % of control; under setting [9], 104 % of control; (dose: 400.0 mg/kg/injection, schedule: Q01DX009 (ip), vehicle: Klucel (hydroxypropylcellulose) (HPC)) 111 % of control.

On to `Nc1ccc2nnnn2n1`, for which the T/C under setting [5] was 100 % of control, the T/C under setting [6] is 98 % of control and the T/C under setting [7] was 98 % of control.

`Cc1ccc(C)[nH][nH]c(N)n1`: the T/C is 99 % of control (dose: 25.0 mg/kg/injection, schedule: Q01DX009 (ip), vehicle: water); 101 % of control (dose: 50.0 mg/kg/injection, schedule: Q01DX009 (ip), vehicle: water); 101 % of control (dose: 100.0 mg/kg/injection, schedule: Q01DX009 (ip), vehicle: water).

For `NC(=O)c1cc(Br)ccc1[N+](=O)[O-]`, the T/C reads like this: under setting [5], 97 % of control; under setting [6], 97 % of control; under setting [7], 87 % of control.

On to `COc1cccc2c1C(=O)c1c(O)c3c(c(O)c1C2=O)C[C@@](O)(C(C)O)C[C@@H]3OC1CC(N2CCC(OC)CC2)C(O)C(C)O1` (stereo partly specified), for which the T/C by setting is: (dose: 0.78 mg/kg/injection, schedule: Q04DX003 (ip), vehicle: water) 112 % of control; (dose: 1.56 mg/kg/injection, schedule: Q04DX003 (ip), vehicle: water) 114 % of control; (dose: 3.12 mg/kg/injection, schedule: Q04DX003 (ip), vehicle: water) 111 % of control and 117 % of control; (dose: 6.25 mg/kg/injection, schedule: Q04DX003 (ip), vehicle: water) 188 % of control; (dose: 12.5 mg/kg/injection, schedule: Q04DX003 (ip), vehicle: water) 158 % of control and 240 % of control; (dose: 25.0 mg/kg/injection, schedule: Q04DX003 (ip), vehicle: water) 118 % of control.

Regarding `CCN(CC)CCNc1ccc(COC(=O)Nc2ccccc2)c2sc3ccccc3c(=O)c12`, the T/C (dose: 6.25 mg/kg/injection, schedule: Q01DX005 (ip), vehicle: Klucel + Tween-80) is 111 % of control.

For the compound `COc1cc2c(cc1OC)-c1cccc3c1N(CC2)CC3`, the T/C reads like this: (dose: 25.0 mg/kg/injection, schedule: Q04DX002 (ip), vehicle: saline with Tween-80) 100 % of control; (dose: 50.0 mg/kg/injection, schedule: Q04DX002 (ip), vehicle: saline with Tween-80) 98 % of control; (dose: 100.0 mg/kg/injection, schedule: Q04DX002 (ip), vehicle: saline with Tween-80) 100 % of control.

For the compound `Cn1c(Cl)c(/C=N\Nc2ccccc2[N+](=O)[O-])c2ccccc21`, the T/C (dose: 25.0 mg/kg/injection, schedule: Q01DX001 (ip), vehicle: Klucel (hydroxypropylcellulose) (HPC)) was 90 % of control; the T/C (dose: 50.0 mg/kg/injection, schedule: Q01DX001 (ip), vehicle: Klucel (hydroxypropylcellulose) (HPC)) was 87 % of control and 89 % of control; the T/C (dose: 100.0 mg/kg/injection, schedule: Q01DX001 (ip), vehicle: Klucel (hydroxypropylcellulose) (HPC)) is 86 % of control and 90 % of control; the T/C (dose: 200.0 mg/kg/injection, schedule: Q01DX001 (ip), vehicle: Klucel (hydroxypropylcellulose) (HPC)) was 87 % of control and 88 % of control.

Turning to `O=C1N/C(=N/OCc2ccccc2)C(F)C(NOCc2ccccc2)N1` (stereo unspecified), the T/C by setting is: (dose: 50.0 mg/kg/injection, schedule: Q01DX009 (ip), vehicle: Klucel (hydroxypropylcellulose) (HPC)) 96 % of control; under setting [8], 101 % of control; under setting [9], 97 % of control.

(Values after PubChem BioAssay AID330 (DTP/NCI, 2004).)
